System: Thy 1
Assay: Splenocyte cell surface density/distribution (FACS): Thy 1
Type: in vivo, mouse (Balb/c female)
Procedure: Another (Group B) is injected with 20 μg (±) methyl 11α,16-dihydroxy-16-methyl-9-oxoprosta-5Z,13E-dien-1-oate as in Example 13. […] A 3 cm incision is made with a scalpel above the left hip, and the spleen is cut free from adjoining tissue and placed in a 100 mn plastic culture dish containing 10 ml PBS. The splenic cells are then made into a suspension, by rubbing the spleens between the rough, frosted ends of microscope slides repeatedly until the only remaining particulate matter is connective tissue. Cells are transferred to a 15 ml conical polystyrene tube and centrifuged in a centrifuge at 1200 rpm for 5 minutes. The supernatant is discarded by aspiration and the cell pellet is resuspended in 10 ml PBS, then centrifuged at 1200 rpm for 5 minutes. The supernatant is aspirated and the cell pellet is resuspended in 15 mM Tris, 140 mM Ammonium Chloride, to lyse red blood cells. After incubating at room temperature for 10 minutes the cell suspension is centrifuged at 1200 rpm for 10 minutes. The supernatant is discarded and the cell pellet is resuspended in 10 ml FACS Buffer (PBS containing 0.1% BSA and 0.1% Sodium Azide). The cell suspension is filtered through sterile glass wool plugged in the top of a pasteur pipet. Cells in the flow through are counted using a hemacytometer, then the cell suspension is centrifuged at 1200 rpm for 5 minutes. The supernatant is discarded and the cell pellet is resuspended in a volume of FACS Buffer that will yield 4×10^7 cells/ml. 10 μl (4×10^5 cells) is added to each well of a 96-well V-bottom plate. 25 μl of diluted monoclonal antibody directed against splenocyte cell surface proteins is added to each well: Major Histocompatability Complex (MHC) Class II (M5114, ATCC, Rockville Md.), MHC Class I (M1/42, ATCC), Anti-IgD (JA12.5, ATCC, Rockville, Md.), Thymocyte (Thy)-1 (JIJ, ATCC), B220 (14.8, ATCC), Kappa light chain (187, ATCC), IL-2 Receptor (7D4, ATCC), Lyt-1 (7.313, ATCC) and CD23 (biotinylated B3B4) and incubated on ice for 30 minutes. 100 μl 10% BSA 0.1% sodium azide is added to each well, then the plates are centrifuged at 1200 rpm for 10 minutes. The liquid is removed by aspiration and the cell pellets are resuspended in 100 μl FACS Buffer, and centrifuged at 1200 rpm for 5 minutes. […] Samples are transferred to individual tubes and 10,000 cells are analyzed. Using the Lysis software (Becton Dickinson, Mountain View, Calif.) the mean channel log fluorescence and percent positive cells are determined for the entire cell population. […]

Q: With `CCCCC(C)(O)C/C=C/[C@H]1[C@H](O)CC(=O)[C@@H]1C/C=C\CCCC(=O)OC` (mixture of isomers) [(±) methyl 11α,16-dihydroxy-16-methyl-9-oxoprosta-5Z,13E-dien-1-oate] as the compound, how does the “Percentage Positive Cells” value (anti-IgD stimulated mice, 20 μg days 3 and 4, day 7 (PBS 14.3)) read?
A: Its value is 23 ± 10%.

Q: And the “Mean Channel Log Fluorescence” value (anti-IgD stimulated mice, 20 μg days 3 and 4, day 7 (PBS 97))?
A: Its value is 98 ± 0.

Q: And the “Percentage Positive Cells” value (unstimulated mice, 20 μg (PBS 9.3))?
A: The value was 25.4 ± 3%.

Q: What about the “Mean Channel Log Fluorescence” value (unstimulated mice, 20 μg (PBS 91)) of the same compound?
A: Its value is 92 ± 3.
